assay: Heat resistance test (TG-DTA, initiation temperature of 5% weight decrease); assay type: physicochemical; conditions: 10 mg, 30° C. to 500° C., 10° C./min

First: 1,2-diisopropyl-4,4,5,5-tetramethylbiguanidium 2-(9-oxoxanthene-2-yl)propionate [formula (7)]
Second: 1,2-diisopropyl-4,4,5,5-tetramethylbiguanidium N-phthaloylglycine [formula (8)]
The Decomposition initiation temperature of the first is lower: 200 °C for the first, 206 °C for the second.

Compared with “1,2-dicyclohexyl-4,4,5,5-tetramethylbiguanidium 8(7H)-ethylidene-4-methoxy-5,6-dihydronaphthalene-1-carboxylate [formula (6)]”, `CC(C(=O)O)c1cccc(C(=O)c2ccccc2)c1` (stereo not shown) [formula (101), guanidium 2-(3-benzoylphenyl)propionate, reference compound] is lower in Decomposition initiation temperature: 205 °C for the first, 161 °C for the second.

Going from “1,2-dicyclohexyl-4,4,5,5-tetramethylbiguanidium 2-(9-oxoxanthene-2-yl)propionate [formula (4)]” to “1,2-diisopropyl-4,4,5,5-tetramethylbiguanidium 8(7H)-ethylidene-4-methoxy-5,6-dihydronaphthalene-1-carboxylate [formula (5)]”, the Decomposition initiation temperature rises from 199 °C to 204 °C.

assay: Exposure curing test using bisphenol A-type diglycidyl ether; conditions: 10 mg compound, 100 mg jER 828, 50 mg KarenzMT PE1

For `CC(C(=O)O)c1cccc(C(=O)c2ccccc2)c1` (stereo not shown) [formula (101), guanidium 2-(3-benzoylphenyl)propionate, reference compound], the “Dissolution into the mixed solution of the bisphenol A-type diglycidyl ether oligomer and pentaerythritol tetrakis(3-mercaptobutyrate)” value was “did not dissolve”.

From patent publication US10428014B2, “Base generator, base-reactive composition containing said base generator, and base generation method” (FUJIFILM Wako Pure Chemical Corporation, priority 2013, dated 2019)
